Assay results reported in the NIST ThermoML archive (doi:10.1016/j.jct.2005.04.005).
Numbers after ± are expanded uncertainties.

Test: mn = molality of the nth substance listed, in mol/kg
Details: 101 kPa, Liquid

C1COCCOCCOCCOCCOCCO1 [1,4,7,10,13,16-hexaoxacyclooctadecane] + O
Details	mass density, 293.15 K [kg/m3]	mass density, 295.15 K [kg/m3]	mass density, 297.15 K [kg/m3]	mass density, 298.15 K [kg/m3]	mass density, 299.15 K [kg/m3]	mass density, 301.15 K [kg/m3]	mass density, 303.15 K [kg/m3]	mass density, 308.15 K [kg/m3]	mass density, 313.15 K [kg/m3]	speed of sound, 298.15 K [m/s]
m1 = 0.0001	–	–	–	997.047 ± 0.6	–	–	–	–	–	–
m1 = 0.09578	1002.26 ± 0.6	1001.8 ± 0.6	1001.29 ± 0.6	1000.98 ± 0.6	1000.71 ± 0.6	1000.12 ± 0.6	999.519 ± 0.6	997.836 ± 0.6	995.959 ± 0.61	–
m1 = 0.0958	–	–	–	1000.98 ± 0.6	–	–	–	–	–	1512.5 ± 2.2
m1 = 0.1953	1006.34 ± 0.62	1005.85 ± 0.61	1005.3 ± 0.61	1004.95 ± 0.61	1004.66 ± 0.61	1004.02 ± 0.61	1003.4 ± 0.61	1001.65 ± 0.6	999.701 ± 0.6	1527.2 ± 2.2
m1 = 0.4197	1015.08 ± 0.64	1014.51 ± 0.64	1013.88 ± 0.64	1013.44 ± 0.64	1013.12 ± 0.64	1012.39 ± 0.63	1011.69 ± 0.63	1009.76 ± 0.62	1007.65 ± 0.62	1557.3 ± 2.3
m1 = 0.5091	1018.38 ± 0.65	1017.79 ± 0.65	1017.12 ± 0.65	1016.66 ± 0.64	1016.33 ± 0.64	1015.56 ± 0.64	1014.82 ± 0.64	1012.82 ± 0.63	1010.65 ± 0.63	1568.3 ± 2.3
m1 = 0.6046	1021.8 ± 0.66	1021.17 ± 0.66	1020.48 ± 0.66	1019.99 ± 0.65	1019.64 ± 0.65	1018.84 ± 0.65	1018.06 ± 0.65	1015.99 ± 0.64	1013.74 ± 0.64	1579.6 ± 2.3
m1 = 0.7192	1025.77 ± 0.67	1025.1 ± 0.67	1024.37 ± 0.67	1023.86 ± 0.67	1023.49 ± 0.66	1022.65 ± 0.66	1021.82 ± 0.66	1019.66 ± 0.65	1017.33 ± 0.65	1592.7 ± 2.3
m1 = 0.8244	1029.28 ± 0.68	1028.57 ± 0.68	1027.8 ± 0.68	1027.28 ± 0.68	1026.89 ± 0.67	1026.01 ± 0.67	1025.14 ± 0.67	1022.9 ± 0.66	1020.49 ± 0.66	1604.2 ± 2.3
m1 = 0.9881	1034.49 ± 0.7	1033.73 ± 0.69	1032.91 ± 0.69	1032.37 ± 0.69	1031.95 ± 0.69	1031.02 ± 0.69	1030.1 ± 0.68	1027.73 ± 0.68	1025.21 ± 0.67	1621.4 ± 2.3
m1 = 1.13	1038.8 ± 0.71	1037.98 ± 0.71	1037.12 ± 0.7	1036.57 ± 0.7	1036.13 ± 0.7	1035.15 ± 0.7	1034.18 ± 0.7	1031.7 ± 0.69	1029.09 ± 0.68	1635.5 ± 2.3
m1 = 1.296	1043.56 ± 0.72	1042.68 ± 0.72	1041.78 ± 0.72	1041.22 ± 0.72	1040.75 ± 0.72	1039.72 ± 0.71	1038.71 ± 0.71	1036.12 ± 0.7	1033.4 ± 0.69	1651.2 ± 2.3
m1 = 1.484	1048.63 ± 0.74	1047.68 ± 0.74	1046.73 ± 0.73	1046.16 ± 0.73	1045.66 ± 0.73	1044.59 ± 0.73	1043.54 ± 0.72	1040.81 ± 0.72	1037.98 ± 0.71	1667.6 ± 2.4
m1 = 1.643	1052.69 ± 0.75	1051.69 ± 0.75	1050.69 ± 0.75	1050.12 ± 0.74	1049.6 ± 0.74	1048.48 ± 0.74	1047.4 ± 0.74	1044.56 ± 0.73	1041.64 ± 0.72	1680.3 ± 2.4
m1 = 2.189	1064.99 ± 0.79	1063.83 ± 0.79	1062.7 ± 0.79	1062.06 ± 0.78	1061.5 ± 0.78	1060.24 ± 0.78	1059.05 ± 0.77	1055.88 ± 0.76	1052.65 ± 0.75	1714.6 ± 2.4
m1 = 2.803	1076.32 ± 0.83	1075.11 ± 0.83	1073.77 ± 0.82	1073.02 ± 0.82	1072.41 ± 0.82	1071.01 ± 0.81	1069.62 ± 0.81	1066.1 ± 0.8	1062.5 ± 0.79	1742.3 ± 2.4
